pEC50: −log10 of the molar value.

In one series the target is T1, Aβ(1–42) (Homo sapiens, UniProt P05067).
T1 construct: Synthesized monomeric Aβ(1–42), […]; […]; IA; made in house; host or cells: chemical synthesis (Fmoc solid phase peptide synthesis)
The series can be described thus: ThT fluorescence Aβ(1–42) aggregation inhibition assay. Type of series: biochemical. Conditions: for Inhibition of Aβ(1–42) fibrillation (ThT fluorescence): compounds at 0.5, 5, 50, 500 μM co-incubated with monomeric Aβ(1–42) 25 μM, 37°C, 3 days, concentration of the printed value not stated. On the procedure:
(§1) ThT fluorescence was used to assess the in vitro inhibition of Aβ(1–42) and disaggregation of Aβ(1–42), Aβ(1–40), Aβ(pE3-42), recombinant tau K18, and tau repeats R1, R2, R3, R4 by YIAD compounds. In house synthetic Aβ(1–42) was dissolved in DMSO (1 mM, 100% DMSO) and diluted to 20-fold in deionized water to make 50 μM Aβ(1–42) stocks (5% DMSO). YIAD compounds were first dissolved in DMSO (100 mM, 100% DMSO) and serially diluted with deionized water to make YIAD stocks with concentrations of 1, 10, 100, and 1000 μM (10% DMSO). For the Aβ(1–42) inhibition assay, monomeric Aβ(1–42) stocks and YIAD stocks were co-incubated at 37°C for 3 days. For Aβ(1–42) disaggregation assay, monomeric Aβ(1–42) stocks were preincubated at 37°C for three days to form Aβ(1–42) aggregates, and subsequently, YIAD stocks were added for an additional 3 days. For Aβ(1-40) disaggregation assays, Aβ(1–40) (50 μM, 5% DMSO) was preincubated at 37°C for 3 days to induce aggregation, and co-incubated with YIAD001 and YIAD002 for an additional 3 days. For Aβ(pE3-42) disaggregation assays, in house synthetic Aβ(pE3-42) (50 μM, 5% DMSO) was preincubated at 37°C for 1 day and co-incubated with YIAD002 for an additional 3 days. For tau K18 disaggregation assay, recombinant tau K18 fragments (35 μM) were dissolved in PBS with 0.1 mg/mL of heparin and 100 μM of DTT, then pre-aggregated at 37°C for 3 days. Then, YIAD stocks were added to aggregated K18 fragments for an additional 3 days. For tau repeat disaggregation assays, tau repeats (R1, R2, R3, R4) (35 μM) were dissolved in PBS with 0.1 mg/mL of heparin and 100 μM of DTT, then pre-aggregated at 37°C for 1 day. Then, YIAD002 was added to aggregated repeats for an additional 3 days. Prior to fluorescence intensity measurement, ThT solution (5 μM) was prepared by dissolving ThT, purchased from Sigma-Aldrich (MO, USA) in 50 mM glycine buffer (pH 8.5). To quantify the effect of inhibition and disaggregation, 25 μL of all samples and 75 μL of ThT solution were loaded into a half-area 96-well black plate in triplicate.

A further series concerns the target T2, Aβ(1–42) aggregates (Homo sapiens, UniProt P05067).
T2 construct: made in house; host or cells: chemical synthesis (Fmoc solid phase peptide synthesis)
In words: ThT fluorescence Aβ(1–42) disaggregation assay. Conditions: for Decrease of fibrillar Aβ(1–42) aggregates (ThT fluorescence): Aβ(1–42) 25 μM pre-aggregated 37°C 3 days, compound added for additional 3 days, concentration of the printed value not stated; for pEC50: pre-aggregated Aβ(1–42) 25 μM, 3 + 3 days, 37°C. The format is biochemical. The procedure:
as §1

A further series deals with 5XFAD mice. The series can be described thus: 6E10 immunohistochemical staining of amyloid plaques in 5XFAD mice after oral administration. Type of series: in vivo, mouse. The following applies: 50 mg/kg/day via drinking water, 5 weeks, 4.5-month-old female 5XFAD mice, vs vehicle. On the procedure: To test the in vivo efficacy of YIAD001 and YIAD002, female 5XFAD mice (n = 25) and female wildtype mice (n = 7) were assessed at the age of 4.5 months. YIAD compounds were dissolved in DMSO and diluted in drinking water to a final concentration of 50 mg/kg/day (5% DMSO, 5% Tween) for oral administration. The three compounds, YIAD001, YIAD002, and YIAD003, were freely administered via drinking water to 4.5-month-old 5XFAD mice (n = 6 for each group) for 5 weeks. As a control, 5% DMSO, 5% Tween in drinking water was provided ad libitum to littermate 5XFAD mice (n = 7) and wildtype mice (n = 7) for 5 weeks.
After the administration period, the mice were deeply anaesthetized with 4% avertin through intraperitoneal injection and transcardially perfused with 0.9% saline. Subsequently, the mice were sacrificed for brain excision. Each collected brain was divided through the mid-sagittal section; the hippocampal and cortical regions were dissected from one half and stored at −80°C for subsequent brain lysates, while the other half was immersed in 4% paraformaldehyde (pH 7.4) for 24 h and 30% sucrose for 48 h at 4°C and subsequently deep-froze at −80°C for immunohistochemistry.
Coronal hippocampal sections of 5XFAD mice brains (35 μm) were cut with a Cryostat (Leica, CM1860) and mounted onto glass slides. Antigen retrieval was performed by submerging slides in 1% SDS and unspecific binding was blocked through incubation in 20% horse serum in PBS for 1 h at RT. Aβ deposits were visualized through immunolabeling by anti-6E10 antibody (1:200 in PBS with 5% horse serum, Biolegend 803003) and detection by fluorescent secondary antibody (1:200 in PBS, IgG Alexa 488). Brain sections were additionally stained with Hoechst 33342. Fluorescent images of the brain sections were taken on a Leica DM2500 fluorescence microscope. Amyloid plaques were quantified using Image-J software (NIH).

A short description of another series: BBB-PAMPA. The format is in vitro ADME. The following applies: PAMPA, pH 7.4. On the procedure: Commercially available Double-Sink PAMPA (Pion® Double sink) assay was performed using a two compartment 96-well microtiter plate and protocols specified by the manufacturer. […] Stock solutions of controls and YIAD002 were dissolved in DMSO (10 mM) and subsequently diluted to 200-fold in pION buffer (pH 7.4) to 50 μM. The donor plate of the PAMPA sandwich was loaded with 50 μM solutions, and after wetting the artificial membrane with BBB lipid solution, the acceptor plate was loaded with acceptor sink buffer. Then, the acceptor plate was placed on the donor plate and incubated at 25°C for 4 h. Compound concentration in the reference, donor, and acceptor plates were measured on a UV plate.
On the technique in general: PAMPA measures passive passage across an artificial lipid membrane.

T2 sequence (P05067 672-713 limits assumed): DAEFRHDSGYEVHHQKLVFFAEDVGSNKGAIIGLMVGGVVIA
T1 sequence (P05067 672-713 limits assumed): as above

Broadly, the melting point is the temperature of the solid-liquid transition. Molecule `CC(C)(C)c1ccc(OCC(O)CN2CCOCC2)cc1.Cl` (stereo not shown) had a melting point of 197.9 to 198.3 °C. As usually defined, the pEC50 is −log10 of the EC50, conventionally taken in molar units. `CC(C)(C)c1ccc(OCC(O)CN2CCCC2)cc1.Cl` (stereo not shown) [YIAD010, 1-(3-(4-(Tert-butyl)phenoxy)-2-hydroxypropyl)pyrrolidin-1-ium chloride] returned a melting point of 139.9 to 140.4 °C. Moreover, the “Inhibition of Aβ(1–42) fibrillation (ThT fluorescence)” value at Aβ(1–42) turned out to be 75.96%. In addition, on Aβ(1–42) aggregates, the “Decrease of fibrillar Aβ(1–42) aggregates (ThT fluorescence)” value amounted to 83.56% and the pEC50 was 3.86. Regarding `COc1ccc(OCC(O)CN2CCOCC2)cc1.Cl` (stereo not shown) [YIAD003, 4-(2-Hydroxy-3-(4-methoxyphenoxy)propyl)morpholin-4-ium chloride], the melting point was in the range of 160.2 to 160.5 °C. Also, the “Activity in anti-Aβ screen” value at Aβ(1–42) (inhibitory interaction with Aβ(1–42) aggregation) was “inactive”. In addition, in the series with 5XFAD mice, the “Number of 6E10-stained plaques” value is “did not cause any change” and the Plaque area result is “slight tendency of an increase”.

Molecule `CC(C)(C)c1ccc(OCC(O)CN2CCCCC2)cc1.Cl` (stereo not shown) [YIAD008, 1-(3-(4-(Tert-butyl)phenoxy)-2-hydroxypropyl)piperidin-1-ium chloride] had a melting point of 201.7 to 202.2 °C. Besides, the “Inhibition of Aβ(1–42) fibrillation (ThT fluorescence)” value at Aβ(1–42) worked out at 70.69%. At Aβ(1–42) aggregates, the “Decrease of fibrillar Aβ(1–42) aggregates (ThT fluorescence)” value came to 59.89% and the pEC50 is 3.44. In general, Papp refers to the rate of passage across a membrane or cell layer, normalised by area and donor concentration. `CC(=O)[C@H]1CC[C@H]2[C@@H]3CCC4=CC(=O)CC[C@]4(C)[C@H]3CC[C@]12C` [progesterone, reference compound] displayed a Papp at 4 h, 50 μM in “BBB-PAMPA” of 50.9 ×10⁻⁶ cm/s. `Cl.OC(COc1ccc(Br)cc1)CN1CCCC1` (stereo not shown) came in with a melting point of 176.9 to 177.7 °C.

Consider `CNC(=C[N+](=O)[O-])NCCSCc1ccc(CN(C)C)o1` [ranitidine, reference compound], for which the “Effective permeability coefficient Pe” value in the series “BBB-PAMPA” (4 h, 50 μM) is recorded as 0 10^−6 cm/s. In turn, `Cl.OC(COc1ccc(Br)cc1)CN1CCOCC1` (stereo not shown) registered a melting point of 172.1 to 172.7 °C.

As to `Cl.OC(COc1ccc(Br)cc1)CN1CCCCC1` (stereo not shown), the melting point was 178.1 to 178.6 °C.

Regarding `COc1ccc(OCC(O)CN2CCCCC2)cc1.Cl` (stereo not shown), the melting point is 169.3 to 169.9 °C.

The values above are taken from paper PMC9706920, “Aryloxypropanolamine targets amyloid aggregates and reverses Alzheimer-like phenotypes in Alzheimer mouse models” (Alzheimer's Research & Therapy, 2022).
